PubChem BioAssay AID200 (DTP/NCI, 2004)
Several values for one entry are separate records, joined by “and”; a condition that tells them apart may be missing. Equal entries are not always repeated. Toxic doses and inconclusive results are not listed.

Tested on: B6C3F1 mice, B16 melanoma ip, median survival T/C
Assay: NCI In Vivo Anticancer Drug Screen. Data for tumor model B16 Melanoma (intraperitoneal) in B6C3F1 mice
Conditions: endpoint: median survival time, higher = longer survival
Outline: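 Readout: survival or tumor size in treated mice relative to vehicle controls (T/C). Model uses transplantable tumors grown in mice.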

[1] = dose: 25.0 mg/kg/injection, schedule: Q01DX009 (ip), vehicle: saline
[2] = dose: 50.0 mg/kg/injection, schedule: Q01DX009 (ip), vehicle: saline
[3] = dose: 2.0 mg/kg/injection, schedule: Q01DX009 (ip), vehicle: saline with Tween-80
[4] = dose: 4.0 mg/kg/injection, schedule: Q01DX009 (ip), vehicle: saline with Tween-80
[5] = dose: 12.5 mg/kg/injection, schedule: Q01DX009 (ip), vehicle: saline with Tween-80
[6] = dose: 25.0 mg/kg/injection, schedule: Q01DX009 (ip), vehicle: saline with Tween-80
[7] = dose: 50.0 mg/kg/injection, schedule: Q01DX009 (ip), vehicle: saline with Tween-80
[8] = dose: 100.0 mg/kg/injection, schedule: Q01DX009 (ip), vehicle: saline with Tween-80
[9] = dose: 200.0 mg/kg/injection, schedule: Q01DX009 (ip), vehicle: saline with Tween-80

For `O=C1N[C@@H]2C(=C[C@H](O)[C@@H](O)[C@H]2O)c2cc3c(c(O)c21)OCO3`, the T/C (dose: 0.62 mg/kg/injection, schedule: Q01DX009 (ip), vehicle: saline with Tween-80) was 115 % of control, the T/C (dose: 1.25 mg/kg/injection, schedule: Q01DX009 (ip), vehicle: saline with Tween-80) was 111 % of control and the T/C (dose: 2.5 mg/kg/injection, schedule: Q01DX009 (ip), vehicle: saline with Tween-80) was 109 % of control. For the same compound, the T/C (dose: 5.0 mg/kg/injection, schedule: Q01DX009 (ip), vehicle: saline with Tween-80) was 123 % of control.

With `CCC(C)C(=O)OC1C(=O)OC2CC3C(C)=CC(=O)C(O)C3(C)C3C4(O)OCC23C1C(C)C4O` (centres undefined) the T/C (dose: 2.5 mg/kg/injection, schedule: Q01DX009 (ip), vehicle: saline) was 160 % of control and the T/C (dose: 5.0 mg/kg/injection, schedule: Q01DX009 (ip), vehicle: saline) was 176 % of control.

In the case of `Nc1c(Cl)[nH]cnc1=S`, the T/C [1] is reported as 89 % of control, the T/C [2] is reported as 105 % of control and the T/C (dose: 100.0 mg/kg/injection, schedule: Q01DX009 (ip), vehicle: saline) is reported as 88 % of control and 91 % of control.

With `CCCCC/C(=C\c1ccccc1)C1OCC(COCC)O1` (centres undefined) the T/C (dose: 6.25 mg/kg/injection, schedule: Q01DX009 (ip), vehicle: saline + Tween-80 + alcohol) was 87 % of control, the T/C (dose: 12.5 mg/kg/injection, schedule: Q01DX009 (ip), vehicle: saline + Tween-80 + alcohol) was 91 % of control and the T/C (dose: 25.0 mg/kg/injection, schedule: Q01DX009 (ip), vehicle: saline + Tween-80 + alcohol) was 94 % of control. For the same compound, the T/C (dose: 50.0 mg/kg/injection, schedule: Q01DX009 (ip), vehicle: saline + Tween-80 + alcohol) was 93 % of control.

`N[C@@H](Cc1ccc(N(CCCl)CCCl)cc1)C(=O)O` was tested, and the T/C (dose: 0.25 mg/kg/injection, schedule: Q01DX009 (ip), vehicle: saline) was 111 % of control and 124 % of control, the T/C (dose: 0.25 mg/kg/injection, schedule: Q01DX009 (ip), vehicle: water) was 124 % of control and the T/C (dose: 1.0 mg/kg/injection, schedule: Q01DX009 (ip), vehicle: water) was 183 % of control. For the same compound, the T/C [3] was 176 % of control, the T/C (dose: 2.0 mg/kg/injection, schedule: Q01DX009 (ip), vehicle: water) was 194 % of control and the T/C (dose: 2.0 mg/kg/injection, schedule: Q04DX003 (ip), vehicle: saline) was 164 % of control. The T/C (dose: 2.5 mg/kg/injection, schedule: Q04DX003 (ip), vehicle: saline) was 182 % of control, the T/C [4] was 387 % of control and the T/C (dose: 4.0 mg/kg/injection, schedule: Q04DX003 (ip), vehicle: saline) was 204 % of control. The T/C (dose: 5.0 mg/kg/injection, schedule: Q04DX003 (ip), vehicle: saline) was 217 % of control, the T/C (dose: 7.31 mg/kg/injection, schedule: Q01DX001 (ip), vehicle: other) was 172 % of control and the T/C (dose: 7.5 mg/kg/injection, schedule: Q04DX003 (ip), vehicle: saline) was 230 % of control and 240 % of control. For the same compound, the T/C (dose: 9.75 mg/kg/injection, schedule: Q01DX001 (ip), vehicle: other) was 157 % of control, the T/C (dose: 10.0 mg/kg/injection, schedule: Q04DX003 (ip), vehicle: saline) was 79 % of control and the T/C (dose: 13.0 mg/kg/injection, schedule: Q01DX001 (ip), vehicle: other) was 173 % of control.

`COc1ccc(CC2C(=O)NC(C)C(=O)N(C)C3Cc4ccc(cc4)Oc4cc(ccc4O)CC(C(=O)NC(C)C(=O)NC(C)C(=O)N2C)N(C)C3=O)cc1` (centres undefined) was tested, and the T/C (dose: 0.25 mg/kg/injection, schedule: Q01DX009 (ip), vehicle: saline with Tween-80) was 158 % of control, the T/C (dose: 0.5 mg/kg/injection, schedule: Q01DX005 (ip), vehicle: saline with Tween-80) was 110 % of control and the T/C (dose: 0.5 mg/kg/injection, schedule: Q01DX005 (iv), vehicle: saline with Tween-80) was 102 % of control and 104 % of control. The T/C (dose: 0.5 mg/kg/injection, schedule: Q01DX009 (ip), vehicle: saline + Tween-80 + alcohol) was 118 % of control, the T/C (dose: 0.5 mg/kg/injection, schedule: Q01DX009 (ip), vehicle: saline with Tween-80) was 162 % of control and 166 % of control and the T/C (dose: 1.0 mg/kg/injection, schedule: Q01DX005 (ip), vehicle: saline with Tween-80) was 124 % of control. For the same compound, the T/C (dose: 1.0 mg/kg/injection, schedule: Q01DX005 (iv), vehicle: saline with Tween-80) was 109 % of control and 105 % of control, the T/C (dose: 1.0 mg/kg/injection, schedule: Q01DX009 (ip), vehicle: saline + Tween-80 + alcohol) was 117 % of control and the T/C (dose: 1.0 mg/kg/injection, schedule: Q01DX009 (ip), vehicle: saline with Tween-80) was 91 % of control. For the same compound, the T/C (dose: 2.0 mg/kg/injection, schedule: Q01DX005 (iv), vehicle: saline with Tween-80) was 122 % of control and 107 % of control, the T/C [3] was 122 % of control and the T/C (dose: 4.0 mg/kg/injection, schedule: Q01DX005 (ip), vehicle: saline with Tween-80) was 122 % of control. The T/C (dose: 4.0 mg/kg/injection, schedule: Q01DX005 (iv), vehicle: saline with Tween-80) was 109 % of control and 111 % of control, the T/C (dose: 4.0 mg/kg/injection, schedule: Q01DX009 (ip), vehicle: other) was 150 % of control and the T/C [4] was 161 % of control. The T/C (dose: 8.0 mg/kg/injection, schedule: Q01DX005 (iv), vehicle: saline with Tween-80) was 110 % of control and 116 % of control and the T/C (dose: 8.0 mg/kg/injection, schedule: Q01DX009 (ip), vehicle: other) was 159 % of control.

For `Nc1ncnc2c1nnn2C1OC(CO)C(O)C1O` (centres undefined), the T/C (dose: 6.0 mg/kg/injection, schedule: Q01DX009 (ip), vehicle: Klucel (hydroxypropylcellulose) (HPC)) was 113 % of control, the T/C (dose: 12.0 mg/kg/injection, schedule: Q01DX009 (ip), vehicle: Klucel (hydroxypropylcellulose) (HPC)) was 115 % of control and the T/C (dose: 25.0 mg/kg/injection, schedule: Q01DX009 (ip), vehicle: Klucel (hydroxypropylcellulose) (HPC)) was 176 % of control.

With `C[Si](C)(C)O/C=C1\CCCCC1=O` the T/C (dose: 6.25 mg/kg/injection, schedule: Q01DX009 (ip), vehicle: saline with Tween-80) was 105 % of control, the T/C [5] was 104 % of control and the T/C [6] was 113 % of control. The T/C [7] was 105 % of control, the T/C [8] was 110 % of control and the T/C [9] was 97 % of control.

`O=C(N/N=C/c1cccc(O)c1O)N/N=C/c1cccc(O)c1O` was tested, and the T/C [5] was 118 % of control, the T/C [6] was 112 % of control and the T/C [7] was 116 % of control. For the same compound, the T/C [8] was 106 % of control and the T/C [9] was 106 % of control.

With `CC(=O)Nc1ccc(N=Nc2c(C)nn(C(=N)N)c2C)cc1` the T/C (dose: 3.12 mg/kg/injection, schedule: Q01DX009 (ip), vehicle: saline) was 103 % of control, the T/C (dose: 6.25 mg/kg/injection, schedule: Q01DX009 (ip), vehicle: saline) was 99 % of control and the T/C (dose: 12.5 mg/kg/injection, schedule: Q01DX009 (ip), vehicle: saline) was 105 % of control. The T/C [1] was 95 % of control and the T/C [2] was 101 % of control.

`COc1cc(Cl)ccc1C` was tested, and the T/C (dose: 9.37 mg/kg/injection, schedule: Q01DX009 (ip), vehicle: Klucel (hydroxypropylcellulose) (HPC)) was 100 % of control, the T/C (dose: 18.75 mg/kg/injection, schedule: Q01DX001 (ip), vehicle: Klucel (hydroxypropylcellulose) (HPC)) was 109 % of control and the T/C (dose: 18.75 mg/kg/injection, schedule: Q01DX009 (ip), vehicle: Klucel (hydroxypropylcellulose) (HPC)) was 100 % of control. The T/C (dose: 37.5 mg/kg/injection, schedule: Q01DX001 (ip), vehicle: Klucel (hydroxypropylcellulose) (HPC)) was 107 % of control, the T/C (dose: 37.5 mg/kg/injection, schedule: Q01DX009 (ip), vehicle: Klucel (hydroxypropylcellulose) (HPC)) was 98 % of control and the T/C (dose: 75.0 mg/kg/injection, schedule: Q01DX001 (ip), vehicle: Klucel (hydroxypropylcellulose) (HPC)) was 115 % of control. The T/C (dose: 75.0 mg/kg/injection, schedule: Q01DX009 (ip), vehicle: Klucel (hydroxypropylcellulose) (HPC)) was 101 % of control, the T/C (dose: 150.0 mg/kg/injection, schedule: Q01DX001 (ip), vehicle: Klucel (hydroxypropylcellulose) (HPC)) was 110 % of control and the T/C (dose: 150.0 mg/kg/injection, schedule: Q01DX009 (ip), vehicle: Klucel (hydroxypropylcellulose) (HPC)) was 100 % of control. For the same compound, the T/C (dose: 300.0 mg/kg/injection, schedule: Q01DX001 (ip), vehicle: Klucel (hydroxypropylcellulose) (HPC)) was 111 % of control and the T/C (dose: 300.0 mg/kg/injection, schedule: Q01DX009 (ip), vehicle: Klucel (hydroxypropylcellulose) (HPC)) was 95 % of control.

For `O=C(O)CNC(=O)OCC1c2ccccc2-c2ccccc21`, the T/C (dose: 100.0 mg/kg/injection, schedule: Q01DX009 (ip), vehicle: Klucel (hydroxypropylcellulose) (HPC)) was 93 % of control, the T/C (dose: 200.0 mg/kg/injection, schedule: Q01DX009 (ip), vehicle: Klucel (hydroxypropylcellulose) (HPC)) was 87 % of control and the T/C (dose: 400.0 mg/kg/injection, schedule: Q01DX009 (ip), vehicle: Klucel (hydroxypropylcellulose) (HPC)) was 86 % of control.

`O=C(O)C1Cc2nc[nH]c2CN1CO` (centres undefined) was tested, and the T/C [5] was 104 % of control, the T/C [6] was 102 % of control and the T/C [7] was 105 % of control. The T/C [8] was 109 % of control, the T/C [9] was 106 % of control and the T/C (dose: 400.0 mg/kg/injection, schedule: Q01DX009 (ip), vehicle: saline with Tween-80) was 104 % of control.
